Data taken from article PMC10547238, “Discovery of Potent Tetrazole Free Fatty Acid Receptor 2 Antagonists” (Journal of Medicinal Chemistry, 2023).
In brackets after ≈: the same amount, converted by molar mass.

Assays:
[1] = Kinetic aqueous solubility; type: physicochemical; details: phosphate buffer; kinetic solubility in PBS at pH 7.4 and 25 °C
Experimental: Twenty microliters of a 10 mM compound stock solution in DMSO was added to an Eppendorf tube containing 980 μL of phosphate buffer (10 mM, pH = 7.4). The samples were incubated in an Eppendorf Thermomixer (25 °C, 800 rpm) for 24 h. Afterward, the samples were centrifuged for 5 min at 11,000 rpm and the supernatant was filtered (0.2 μm PTFE membrane) before analysis by HPLC. Each compound was analyzed in duplicate. The solubility was calculated from the peak area relative to the reference samples (200 μM in MeOH/MilliQ H2O, 60/40, v/v).

human FFA2-eYFP = target: T1, human FFA2-eYFP (Homo sapiens, UniProt O15552); test: [35S]GTPγS incorporation assay, membranes of Flp-In T-Rex 293 cells; type: biochemical; details: for GTPγS pIC50: hFFA2, propionate at EC80, mean ± SEM, three or more experiments; for LLEGTPγS: pIC50, GTPγS – ClogP
T1 construct: expressed in transfected cells; host or cells: membranes of Flp-In T-Rex 293 cells induced to express the construct
T1 sequence (O15552 1-330): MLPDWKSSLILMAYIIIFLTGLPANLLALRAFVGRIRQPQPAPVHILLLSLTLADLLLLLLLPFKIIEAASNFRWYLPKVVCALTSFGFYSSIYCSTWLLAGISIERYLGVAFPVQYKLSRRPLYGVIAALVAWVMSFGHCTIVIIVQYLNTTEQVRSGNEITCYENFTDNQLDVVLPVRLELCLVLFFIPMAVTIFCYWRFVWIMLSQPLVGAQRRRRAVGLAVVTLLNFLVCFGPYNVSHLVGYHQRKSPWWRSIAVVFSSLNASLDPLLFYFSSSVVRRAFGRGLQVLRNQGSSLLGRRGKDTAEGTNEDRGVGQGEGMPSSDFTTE
Experimental: (§1) The activity of the compounds on FFA2 was evaluated in two different functional antagonist assays, both using propionate at EC80 as the agonist. The GTPγS assay reflects receptor activation by directly assessing G protein recruitment, whereas the cAMP assay, performed in whole cells, reflects a physiologically relevant downstream second messenger.
Functional activity of the compounds were tested in a [^35S]GTPγS incorporation assay using membranes of Flp-In T-Rex 293 cells induced to express human FFA2-eYFP. […] The reaction was initiated by addition of [^35S]GTPγS (100 nCi per reaction) containing 1 μM GDP and incubated at 30 °C for 60 min. The reaction was terminated by rapid vacuum filtration through GF/C glass fiber filter-bottom 96-well microplates (PerkinElmer Life Sciences, Beaconsfield, UK) using a UniFilter FilterMate Harvester (PerkinElmer). Unbound radioligands were removed from filters by three washes with ice-cold PBS. MicroScint-20 (PerkinElmer) was added to dried filters, and [^35S]GTPγS binding was quantified by liquid scintillation spectroscopy.

hFFA2 = target: T2, hFFA2 (Homo sapiens, UniProt O15552); test: cAMP assay, antagonist mode, Flp-In T-Rex 293 cells expressing hFFA2-eYFP; type: cell-based; details: for cAMP pIC50: hFFA2, antagonist mode, propionate at EC80, mean ± SEM, three or more experiments; for LLEcAMP: pIC50, cAMP – ClogP; for IC50: read-out: hFFA2 cAMP (pIC50) (converted)
T2 construct: expressed in transfected cells; host or cells: Flp-In T-Rex 293 cells, doxycycline-induced
T2 sequence (O15552 1-330): T1 sequence (O15552 1-330)
Experimental: as §1
The hFFA2-eYFP and hFFA3-eYFP Flp-In T-Rex 293 cell lines were maintained in Dulbecco’s modified Eagle mMedium (DMEM, ThermoFisher #11965092) supplemented with 10% (v/v) fetal bovine serum, 100 U/mL penicillin, 100 μg/mL streptomycin, 5 μg/mL blasticidin S, and 200 μg/mL hygromycin B and incubated at 37 °C and 5% CO2 in a humidified incubator. Cells were passaged at 70–80% confluency.
To determine the compound’s ability to activate or inhibit the Gi-coupled FFA2 or FFA3, intracellular cAMP concentrations were determined using Flp-In T-Rex293 cells induced to express hFFA2-eYFP or hFFA3-eYFP. Experiments were carried out using a homogeneous time-resolved FRET-based detection kit (CisBio, PerkinElmer #62AM9PEC) according to the manufacturer’s protocol. The day before the assay, 10,000 cells/well were plated in DMEM supplemented with penicillin/streptomycin (100 units/mL and […], respectively), 5 μg/mL blasticidin S, and 200 μg/mL hygromycin B in 96-well cell culture microplates (Greiner Bio-One) and induced to express hFFA2-eYFP or hFFA3-YFP with 100 ng/mL doxycycline.
In antagonist mode, the cells were pre-incubated for 20 min with antagonist test compounds in HBSS together with 50 μM IBMX at rt. Then, the cells were further incubated for 25 min at rt in HBSS with the agonist compound, sodium propionate at EC80 (51.4 μM for FFA2, 13.2 μM for FFA3), and 3 μM forskolin. Reactions were stopped, and the output was measured with an Envision plate reader using a time-resolved fluorescence protocol, measuring the light emission at 620 and 665 nm. All analyses were performed in triplicate and analyzed using GraphPad Prism (version 9).

Structure (SMILES)	solubility at 24 h [1] [µM]	GTPγS pIC50 (human FFA2-eYFP)	LLEGTPγS (human FFA2-eYFP)	cAMP pIC50 (hFFA2)	LLEcAMP (hFFA2)	IC50 (hFFA2; supplementary CSV) [nM]	hFFA2 cAMP (pIC50) (hFFA2; supplementary CSV)	potency decrease on elongated tetrazole linker (human FFA2-eYFP; vs 16e, GTPγS assay)	potency decrease on elongated tetrazole linker (hFFA2; vs 16e, cAMP assay)	decrease in potency compared to 16a (human FFA2-eYFP; GTPγS assay) [fold]	decrease in potency compared to 16a (hFFA2; cAMP assay) [fold]
O=C(Cc1cccc(I)c1)N[C@@H](Cc1ccc(C(F)(F)F)cc1)Cc1nnn[nH]1 [Compound 16h, (S)-N-(1-(1H-Tetrazol-5-yl)-3-(4-(trifluoromethyl)phenyl)propan-2-yl)-2-(3-iodophenyl)acetamide]	81 (≈ 41.7 µg/mL)	8.38 ± 0.05	4.69	8.26 ± 0.08	4.57	6.03	–	–	–	–	–
O=C(Cc1cccc(Br)c1)N[C@@H](Cc1ccc(C(F)(F)F)cc1)Cc1nnn[nH]1 [Compound 16g, (S)-N-(1-(1H-Tetrazol-5-yl)-3-(4-(trifluoromethyl)phenyl)propan-2-yl)-2-(3-bromophenyl)acetamide]	121 (≈ 56.7 µg/mL)	8.30 ± 0.21	4.87	8.21 ± 0.09	4.78	–	8.19 ± 0.19	–	–	–	–
O=C(CCc1ccccc1)N[C@@H](Cc1ccc(C(F)(F)F)cc1)Cc1nnn[nH]1 [Compound 16q, (S)-N-(1-(1H-Tetrazol-5-yl)-3-(4-(trifluoromethyl)phenyl)propan-2-yl)-3-phenylpropanamide]	–	7.19 ± 0.04	4.30	6.78 ± 0.14	3.89	186	–	–	–	–	–
O=C(Cc1ccccn1)N[C@@H](Cc1ccc(C(F)(F)F)cc1)Cc1nnn[nH]1 [Compound 16r, (S)-2-(2-((1-(1H-Tetrazol-5-yl)-3-(4-(trifluoromethyl)phenyl)propan-2-yl)amino)-2-oxoethyl)pyridin-1-ium 2,2,2-trifluoroacetate]	–	6.71 ± 0.17	5.64	5.93 ± 0.15	4.86	1450	–	–	–	–	–
O=C(Cc1cccc(Cl)c1)N[C@H](CCc1nnn[nH]1)Cc1ccc(C(F)(F)F)cc1 [Compound 21, (R)-N-(4-(1H-Tetrazol-5-yl)-1-(4-(trifluoromethyl)phenyl)butan-2-yl)-2-(3-chlorophenyl)-acetamide]	–	7.72 ± 0.12	3.92	7.55 ± 0.14	3.75	30.9	–	5–6 fold	5–6 fold	–	–
CCOc1cccc(CC(=O)N[C@@H](Cc2ccc(C(F)(F)F)cc2)Cc2nnn[nH]2)c1 [Compound 16m, (S)-N-(1-(1H-Tetrazol-5-yl)-3-(4-(trifluoromethyl)phenyl)propan-2-yl)-2-(3-ethoxyphenyl)acetamide]	–	8.05 ± 0.19	5.04	7.77 ± 0.12	4.76	15.8	–	–	–	–	–
O=C(Cc1cccnc1)N[C@@H](Cc1ccc(C(F)(F)F)cc1)Cc1nnn[nH]1 [Compound 16s, (S)-3-(2-((1-(1H-Tetrazol-5-yl)-3-(4-(trifluoromethyl)phenyl)propan-2-yl)amino)-2-oxoethyl)pyridin-1-ium 2,2,2-trifluoroacetate]	–	7.29 ± 0.07	6.22	6.89 ± 0.10	5.82	91.2	–	–	–	7	7
O=C(Cc1cccc(OC(F)(F)F)c1)N[C@@H](Cc1ccc(C(F)(F)F)cc1)Cc1nnn[nH]1 [Compound 16n, (S)-N-(1-(1H-Tetrazol-5-yl)-3-(4-(trifluoromethyl)phenyl)propan-2-yl)-2-(3-(trifluoromethoxy)phenyl)acetamide]	–	7.50 ± 0.23	3.91	7.44 ± 0.18	3.85	46.8	–	–	–	–	–
